Test results reported in paper PMC10698194 (Nature Communications, 2023).
Bridge positions count the residues as written; N and C are the ends. Square brackets hold non-standard residues; d marks the D form. Peptide text beside a SMILES is read from it. * marks the point of attachment. X1 = C=CCN1CC[C@]23c4c5ccc(O)c4O[C@H]2[C@H](N*)CC[C@@]3(O)[C@H]1C5

Target: human KOR (Homo sapiens, UniProt P41145)
Assay: [35S]GTPγS binding assay, CHO membranes
Format: biochemical
Set-up: expressed in transfected cells

human KOR, sequence (P41145 whole entry): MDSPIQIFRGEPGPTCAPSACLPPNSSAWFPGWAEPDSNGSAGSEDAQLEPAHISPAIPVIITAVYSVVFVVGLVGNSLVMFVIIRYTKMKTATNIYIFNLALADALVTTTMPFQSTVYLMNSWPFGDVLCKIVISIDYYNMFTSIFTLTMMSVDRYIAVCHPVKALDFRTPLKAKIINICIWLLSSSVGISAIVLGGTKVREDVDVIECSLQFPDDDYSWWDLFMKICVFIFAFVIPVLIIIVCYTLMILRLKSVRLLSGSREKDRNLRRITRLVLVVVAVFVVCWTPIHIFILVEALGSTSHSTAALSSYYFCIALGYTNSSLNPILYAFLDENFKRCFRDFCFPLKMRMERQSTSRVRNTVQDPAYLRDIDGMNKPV

`C=CCN1CC[C@]23c4c5ccc(O)c4O[C@H]2[C@H](NC(=O)[C@@H](Cc2ccccc2)NC(=O)[C@@H](NC(=O)[C@@H]2CSCC(=O)N[C@@H](Cc4ccc(O)cc4)C(=O)N[C@@H](C)C(=O)N[C@H](Cc4ccc(O)cc4)C(=O)N[C@@H]([C@@H](C)O)C(=O)N[C@@H]([C@@H](C)O)C(=O)N2)[C@@H](C)O)CC[C@@]3(O)[C@H]1C5` [DNCP-β-NalA(1)] ({CH2CO}-YA[dY]TTCT[dF]-X1; thioether N-6) was tested, and the Emax was 83%.
